We go through 15 compounds from patent US20160185797A1, “ALKYNYL ALCOHOLS AND METHODS OF USE” (Genentech, Inc., priority 2013, published 2016).

Test [1] relates to REL-A (p65) nuclear translocation in HeLa cells. The test is described as follows: REL-A (p65) nuclear translocation assay in HeLa cells, TNF-α stimulated (classical NF-kB signaling), high content imaging. The following applies: Homo sapiens, HeLa, compound 4.5 h, then 10 ng/mL TNF-α for 30 minutes, read-out: REL-A HeLa Transloc Assay (IC50). It counts as cell-based. In short, it runs like this:
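HeLa cells in medium with 10% fetal bovine serum were exposed to compounds (0.2% DMSO final) for 4.5 hours, then stimulated with 10 ng/mL TNF-α for 30 minutes. After fixation in 4% paraformaldehyde and permeabilization with 0.1% Triton X-100, cells were stained with 400 ng/mL anti-REL-A (p65) antibody, an Alexa488 secondary and DRAQ5. Opera imaging quantified the nuclear-to-cytoplasmic signal ratio to give IC50.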

Test [2] concerns p52 (NF-kB2) nuclear translocation in HeLa cells. The test is described as follows: p52 (NF-kB2) nuclear translocation assay in HeLa cells, anti-lymphotoxin beta receptor antibody stimulated (non-classical NF-kB signaling), high content imaging. It counts as cell-based. The following applies: Homo sapiens, 100 ng/mL anti-lymphotoxin beta receptor antibody for 5 hours, read-out: p52 HeLa Transloc Assay (IC50). The procedure, abridged: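 HeLa cells in 10% FBS medium were treated with compound (0.2% DMSO final) and stimulated with 100 ng/mL anti-lymphotoxin beta receptor antibody for 5 h. Fixed cells were immunostained for p52 and imaged with DRAQ5 nuclear stain. Translocation is the nuclear to cytoplasmic intensity ratio, […].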

Test [3] deals with T1, nuclear factor-kappa B (NF-kB)-inducing kinase (NIK) (Homo sapiens, UniProt Q99558).
T1 construct: made in house; host or cells: baculovirus-infected insect cells
T1 sequence (Q99558 whole entry): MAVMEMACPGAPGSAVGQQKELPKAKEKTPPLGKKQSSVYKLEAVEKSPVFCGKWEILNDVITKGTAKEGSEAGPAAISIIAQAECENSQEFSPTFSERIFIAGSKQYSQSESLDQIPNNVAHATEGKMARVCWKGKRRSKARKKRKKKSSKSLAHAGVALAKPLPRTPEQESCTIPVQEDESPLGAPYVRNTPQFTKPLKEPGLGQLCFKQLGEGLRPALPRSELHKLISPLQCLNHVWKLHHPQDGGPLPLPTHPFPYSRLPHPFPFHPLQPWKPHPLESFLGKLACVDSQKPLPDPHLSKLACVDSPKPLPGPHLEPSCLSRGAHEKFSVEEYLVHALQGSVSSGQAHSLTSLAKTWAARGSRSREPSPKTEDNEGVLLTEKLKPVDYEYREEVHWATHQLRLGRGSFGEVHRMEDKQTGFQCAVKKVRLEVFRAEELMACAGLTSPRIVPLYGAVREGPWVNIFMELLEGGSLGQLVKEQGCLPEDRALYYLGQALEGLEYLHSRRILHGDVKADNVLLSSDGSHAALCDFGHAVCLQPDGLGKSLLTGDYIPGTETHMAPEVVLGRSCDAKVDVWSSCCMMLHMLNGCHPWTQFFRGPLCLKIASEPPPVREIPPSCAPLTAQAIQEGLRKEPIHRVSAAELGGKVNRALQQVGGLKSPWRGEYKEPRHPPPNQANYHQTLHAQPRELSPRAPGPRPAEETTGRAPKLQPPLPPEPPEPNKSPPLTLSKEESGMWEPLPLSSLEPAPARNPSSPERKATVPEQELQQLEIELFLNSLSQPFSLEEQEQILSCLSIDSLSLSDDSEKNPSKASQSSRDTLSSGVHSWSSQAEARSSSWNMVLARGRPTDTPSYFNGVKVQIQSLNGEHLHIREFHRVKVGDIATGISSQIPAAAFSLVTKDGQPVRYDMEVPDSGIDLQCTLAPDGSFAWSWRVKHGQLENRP
As to the kind of experiment: NIK enzyme inhibition assay (Transcreener ADP fluorescence polarization, NIK ADP-FP). It counts as biochemical. (In fluorescence polarisation assays a small probe gives low polarisation when free and higher when bound to something large.)

Bounds are passed on as bounds.

Regarding `CN1CC[C@@](O)(C#Cc2cccc(-c3cc4c(C(F)(F)F)c[nH]c4c(C(N)=O)n3)c2)C1=O` [Example 159, 5-[3-[2-[(3R)-3-hydroxy-l-methyl-2-oxo-pyrrolidin-3-yl]ethynyl]phenyl]-3-(trifluoromethyl)-1H-pyrrolo [2,3-c]pyridine-7-carboxamide], the IC50 in test [1] is > 2000 nM; in test [2], 73 nM. Further, the Ki in test [3] was < 0.05 nM.

Take `CN1CC[C@@](O)(C#Cc2cc(-c3cccc(C(N)=O)n3)c3ncsc3c2)C1=O` [Example 160]: the IC50 in test [1] was > 2000 nM; in test [2], 416 nM. In addition, the Ki in test [3] is 0.5 nM.

As for `CN1CC[C@@](O)(C#Cc2cc(F)cc(-c3nc(C(N)=O)cn4ccnc34)c2)C1=O` [Example 161, 8-[3-fluoro-5-[2-[(3R)-3-hydroxy-l-methyl-2-oxo-pyrrolidin-3-yl]ethynyl]phenyl]imidazol [1,2-a]pyrazine-6-carboxamide], the concentration for half-maximal inhibition (IC50) is > 2000 nM in test [1] and 445 nM in test [2]. Further, the affinity in test [3] corresponds to a Ki of 0.33 nM.

`CN1CC[C@@](O)(C#Cc2cccc(-c3cc(OC(F)F)cc(C(N)=O)n3)c2)C1=O` [Example 162, 4-(difluoromethoxy)-6-[3-[2-[(3R)-3-hydroxy-l-methyl-2-oxo-pyrrolidin-3-yl]ethynyl]phenyl]pyridine-2-carboxamide]: the IC50 in test [1] is > 2000 nM; in test [2] it was 67 nM. In test [3], the inhibitory constant (Ki) was < 0.05 nM.

On to `Cc1cc(C(N)=O)nc(-c2ccc(F)c(C#C[C@]3(O)CCN(C)C3=O)c2)c1` [Example 164, 6-[4-fluoro-3-[2-[(3R)-3-hydroxy-1-methyl-2-oxo-pyrrolidin-3-yl]ethynyl]phenyl]-4-methyl-pyridine-2-carboxamide], for which the IC50 is > 2000 nM in test [1] and 62 nM in test [2]. Moreover, in test [3], the Ki was < 0.05 nM.

As to `Cc1ncc(-c2cccc(C#C[C@]3(O)CCN(C)C3=O)c2)nc1C(N)=O` [Example 165, 6-[3-[2-[(3R)-3-hydroxy-1-methyl-2-oxo-pyrrolidin-3-yl]ethynyl]phenyl]-3-methyl-pyrazine-2-carboxamide], the IC50 is > 2000 nM in test [1] and 180 nM in test [2]. The same compound gave a Ki in test [3] of 0.08 nM.

With `Cc1ccn(-c2cc(C(N)=O)nc(-c3cccc(C#C[C@]4(O)CCN(C)C4=O)c3)n2)n1` [Example 166, 2-[3-[2-[(3R)-3-hydroxy-1-methyl-2-oxo-pyrrolidin-3-yl]ethynyl]phenyl]-6-(3-methylpyrazol-1-yl)pyrimidine-4-carboxamide], the IC50 in test [1] is > 2000 nM; in test [2], 59 nM. Further, the Ki in test [3] is < 0.05 nM.

In the case of `CN1CC[C@@](O)(C#Cc2cc(F)cc(-c3nc(C(N)=O)c(N)cc3F)c2)C1=O` [Example 167, 3-amino-5-fluoro-6-[3-fluoro-5-[2-[(3R)-3-hydroxy-1-methyl-2-oxo-pyrrolidin-3-yl]ethynyl]phenyl]pyridine-2-carboxamide], the IC50 in test [1] was > 2000 nM; in test [2] it was 85 nM. For the same compound, the Ki in test [3] was < 0.05 nM.

Consider `Cc1cc(C(N)=O)nc(-c2cc(F)cc(C#C[C@]3(O)CCN(C)C3=O)c2)c1` [Example 168, 6-[3-fluoro-5-[2-[(3R)-3-hydroxy-1-methyl-2-oxo-pyrrolidin-3-yl]ethynyl]phenyl]-4-methyl-pyridine-2-carboxamide], for which the figures for the IC50 in test [1] and in test [2] were > 2000 nM and 130 nM, respectively. This compound yielded a Ki in test [3] of 0.16 nM.

For the compound `COc1cc(-c2cccc(C#C[C@]3(O)CCN(C)C3=O)c2)nc(C(N)=O)c1C` [Example 169, 6-[3-[2-[(3R)-3-hydroxy-1-methyl-2-oxo-pyrrolidin-3-yl]ethynyl]phenyl]-4-methoxy-3-methyl-pyridine-2-carboxamide], the figures for the IC50 in test [1] and in test [2] were > 2000 nM and 196 nM, respectively. Moreover, the inhibitory constant (Ki) in test [3] was found to be 0.55 nM.

Regarding `Cc1cc(-c2cccc(C#C[C@]3(O)CCN(C)C3=O)c2)nc(C(N)=O)c1N` [Example 170, 3-amino-6-[3-[2-[(3R)-3-hydroxy-l-methyl-2-oxo-pyrrolidin-3-yl]ethynyl]phenyl]-4-methyl-pyridine-2-carboxamide], the results for the IC50 in test [1] and in test [2] were > 2000 nM and 26 nM, respectively. In addition, the Ki in test [3] was < 0.1 nM.

For `COc1cc(C(N)=O)nc(-c2cc(F)cc(C#C[C@]3(O)CCN(C)C3=O)c2)c1` [Example 171, 6-[3-fluoro-5-[2-[(3R)-3-hydroxy-1-methyl-2-oxo-pyrrolidin-3-yl]ethynyl]phenyl]-4-methoxy-pyridine-2-carboxamide], the IC50 in test [1] is > 2000 nM; in test [2], 132 nM. In test [3], this compound yielded a Ki of 0.24 nM.

As to `Cc1nc(-c2cccc(C#C[C@]3(O)CCN(C)C3=O)c2)nc(C(N)=O)c1N` [Example 172, 5-amino-2-[3-[2-[(3R)-3-hydroxy-1-methyl-2-oxo-pyrrolidin-3-yl]ethynyl]phenyl]-6-methyl-pyrimidine-4-carboxamide], the IC50 is > 2000 nM in test [1] and 78 nM in test [2]. In addition, the Ki in test [3] was 0.36 nM.

For the compound `CN1CC[C@@](O)(C#Cc2cccc(-c3cc(C(F)F)cc(C(N)=O)n3)c2)C1=O` [Example 173, 4-(difluoromethyl)-6-[3-[2-[(3R)-3-hydroxy-1-methyl-2-oxo-pyrrolidin-3-yl]ethynyl]phenyl]pyridine-2-carboxamide], the IC50 in test [1] was > 2000 nM; in test [2], 108 nM. In test [3], this compound had a Ki of 0.31 nM.

As to `CN1CC[C@@](O)(C#Cc2cccc(-c3cc(N4CCCC4=O)cc(C(N)=O)n3)c2)C1=O` [Example 174, 6-[3-[2-[(3R)-3-hydroxy-1-methyl-2-oxo-pyrrolidin-3-yl]ethynyl]phenyl]-4-(2-oxopyrrolidin-1-yl)pyridine-2-carboxamide], the IC50 was > 2000 nM in test [1] and 449 nM in test [2]. In addition, the Ki in test [3] came to 0.53 nM.

A word on the IC50: it is the midpoint of a concentration-inhibition curve. As usually defined, the Ki is the dissociation constant of the complex between target and ligand, obtained from inhibition or displacement. A higher Ki goes with weaker binding.
